Results reported in ChEMBL document CHEMBL2321846, “Aldosterone synthase inhibitors: targeting chronic kidney disease and diabetic nephropathy” (ACS Med Chem Lett, 2013).

Assays:
[1] = biological target: T1, Cytochrome P450 11B2, mitochondrial (Homo sapiens, UniProt P19099); experiment: Inhibition of human aldosterone synthase transfected in chinese hamster V79 cells after 24 hrs by LC-MS method; assay type: cell-based
T1 sequence (P19099 whole entry): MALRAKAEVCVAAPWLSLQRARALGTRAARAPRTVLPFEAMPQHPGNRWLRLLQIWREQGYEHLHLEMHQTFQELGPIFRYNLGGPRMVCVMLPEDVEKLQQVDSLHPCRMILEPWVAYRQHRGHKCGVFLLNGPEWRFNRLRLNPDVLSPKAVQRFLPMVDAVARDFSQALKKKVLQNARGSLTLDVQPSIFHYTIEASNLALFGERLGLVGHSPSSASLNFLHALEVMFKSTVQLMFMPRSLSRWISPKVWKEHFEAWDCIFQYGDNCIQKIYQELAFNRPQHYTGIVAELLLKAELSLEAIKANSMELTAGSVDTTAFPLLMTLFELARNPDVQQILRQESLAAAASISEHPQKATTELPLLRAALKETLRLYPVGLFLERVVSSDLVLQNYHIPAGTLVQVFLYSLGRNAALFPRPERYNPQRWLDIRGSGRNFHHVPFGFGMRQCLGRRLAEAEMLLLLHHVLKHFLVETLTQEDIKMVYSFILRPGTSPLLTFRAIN

NCI-H295R [2] = experiment: Inhibition of testosterone production in human NCI-H295R cells after 48 hrs by HPLC analysis; assay type: functional, cell-based
[3] = test system: testosterone production (relative to human aldosterone synthase); experiment: Selectivity ratio of IC50 for testosterone production in human H295R cells to IC50 for human aldosterone synthase; assay type: ADME, cell-based; settings: read-out: Ratio IC50
NCI-H295R [4] = experiment: Inhibition of estradiol production in human NCI-H295R cells after 48 hrs by HPLC analysis; assay type: functional, cell-based
[5] = test system: estradiol production (relative to human aldosterone synthase); experiment: Selectivity ratio of IC50 for estradiol production in human H295R cells to IC50 for human aldosterone synthase; assay type: ADME, cell-based; settings: read-out: Ratio IC50

IC50 [1] [µM] | IC50 (NCI-H295R [2]) [µM] | IC50 (NCI-H295R [4]) [µM] | Structure (SMILES) | selectivity ratio [3] | selectivity ratio [5]
0.005 | > 30 | 13.2 | CC1(C)C[C@H](c2ccc(C#N)cc2)c2cn[nH]c21 | > 6000 | 2640
0.007 | > 30 | 22 | CC1(C)CC(c2ccc(C#N)cc2F)c2cn[nH]c21 (stereo not given) | > 4280 | 3140
